Assay results from patent US20260200903A1, “PHARMACEUTICAL COMPOSITION FOR AMELIORATING MALIGNANT DISEASES” (KINKI UNIVERSITY, priority 2020, published 2026).

Columns and labels:
Format in all cases: cell-based
Raji cells = assay: Cell death-inducing effect of rituximab in Raji cells, trypan blue staining; settings: cell viability
Excerpt: (§1) Referring to FIG. 7, the horizontal axis is the rituximab concentration (μg/mL) and the vertical axis is the cell viability (%). […] However, the cell viability was clearly higher in RR1 cells, confirming that they are resistant to rituximab.

KMS-28BM cells = assay: Cell death in KMS-28BM cells by each compound in combination with rituximab, trypan blue staining; settings: 10 days with 0.1 M9, 0.01 μM M14/M15/M16, 0.5 μM M18/M19, then human serum and rituximab
Procedure: As a control, compounds untreated KMS-28BM cells were seeded in 75 cm^2 flasks and incubated for 10 days at 37° C. and 5% CO2. KMS-28BM cells were seeded into 75 cm^2 flasks and pre-cultured for 24 h. After incubation, KMS-28BM cells were treated with […], 0.01 μM M14, 0.01 μM M15, 0.01 μM M16, 0.5 μM M18, and 0.5 μM M19 at final concentrations, and incubated for 10 days at 37° C. and 5% CO2. This added amount is a concentration lower than the IC50 of the above compounds for KMS-28BM cells.
After 10 days of incubation, cells were seeded into 96-well plates, human serum and 10 µg/mL rituximab were added, and cell viability was determined by the trypan blue staining.
For controls, only 0.5% DMSO (diluted in PBS) used to dissolve the compounds was added.

RR1 cells = assay: Cell death-inducing effect of rituximab in RR1 cells, trypan blue staining
Excerpt: Raji cells, a burkitt lymphoma cell line, were modified to be rituximab-resistant and named RR1 cells.
as §1

“rituximab: an anti-CD20 monoclonal antibody” was tested, and the “IC50 of Raji cells to rituximab” value (Raji cells) was 0.121 µg/mL, the “cell death induction compared to control” value (KMS-28BM cells) was “did not induce cell death” and the “IC50 of RR1 cells to rituximab” value (RR1 cells; RR1 cells, cell viability) was 98 µg/mL. For the same substance, the “resistance of RR1 cells to rituximab relative to Raji cells” value (RR1 cells; ratio of IC50 RR1 / Raji) was “approximately 809 times”.
